Consider two molecules from publication PMC12154549, “Structure-based design of an aromatic helical foldamer–protein interface” (Chemical Science, 2025).

SMILES strings stand for the structures. Read-outs that look alike come from different tables or passages of the source.

The target in experiment [1] is T1, HCAII (Homo sapiens, UniProt P00918).
T1 construct: made in house
In words: Fluorescence competition assay: HCAII titrated into foldamer or ligand plus probe 23. The following applies: [competing species] = [23] = 50 nM; 50 mM HEPES pH 7.2; 1:1 binding isotherm, 380-600 nm; repeatable within ±15%. The text has this:
We turned to a recently published assay that exploits the quenching of the fluorescence of nanomolar ligand 23 upon binding to HCAII (Fig. 8a).[32] The low KD value of 23 makes it suitable to perform competition (displacement) assays with compounds binding in the same concentration range. However, some optimization of the assay was required to perform experiments with foldamer-containing ligands because the foldamers absorb both at the excitation (373 nm) and emission (400–450 nm) wavelengths of 23. Performing classical direct displacement titrations where a foldamer is added to a solution containing 23 and HCAII would be complicated by variable inner filter effects. […] For fluorescence measurements: 50 mM HEPES (4-(2-hydroxyethyl)-1-piperazineethanesulfonic acid) at pH 7.2. […] It appears that the fluorescence drops upon adding HCAII, i.e. that ligand 23 binds to HCAII, in presence of the foldamer faster than predicted by the binding model. A better fit can be artificially obtained by inputting HCAII concentrations 20% larger than those measured or foldamer concentrations 20% lower than those measured in the curve fitting program. […]
4.2 Fluorescence binding assay […]
2. To the solution of 23 (50 nM) in HEPES buffer (50 mM, pH 7.2) in the fluorescence cuvette (2 mL), incremental volumes of a stock solution of HCAII (11 µM) in HEPES buffer were added. […]

For experiment [2], the target named is T1, HCAII. Also on record: method as in PMID 30395443. The following applies: HCAII immobilized; 2:98 DMSO/PBS pH 7.4, 25 °C; ref 8a; read-out: KD by SPR; cited from earlier work. (Surface plasmon resonance follows binding to a sensor surface in real time, without labels.)
For experiment [3], the target named is T1, HCAII. In words: Direct fluorescence titration of probe 23 with HCAII. The class given is binding. The settings on record: 23 50 nM, 50 mM HEPES pH 7.2, RT, 1:1 model; read-out: KD of 23·HCAII complex. As for the experimental part: 4.2 Fluorescence binding assay
This fluorescence assay was adapted from the paper of Anzenbacher.18 All fluorescence titrations were done in aqueous 50 mM HEPES buffer (pH = 7.2) at room temperature , without degassing of the samples and using a qua rtz fluorescence cuvette with 1 cm path length on Varian Cary Eclipse Spectrophotometer 05813. The titration assays were carried out in two parts: 1) sensor - protein titration (Figure S21); 2) sensor-foldamer competition assay (Figure S24). Several experiments were repeated and validated a reproducibility within 15% error.
Figure S21. Schematic procedure of the titration experiment between indicator 23 and HCAII (adapted from literature18).
4.2.1 KD measurement of the 23•HCAII complex
1. […]
2. To the solution of 23 (50 nM) in HEPES buffer (50 mM, pH 7.2) in the fluorescence cuvette (2 mL), incremental volumes of a stock solution of HCAII (11 µM) in HEPES buffer were added.
After each addition and gentle agitation, the resulting mixture was incubated for 5 min at RT. The intensity of fluorescence (IF) was then recorded from 380 nm to 600 nm (λex = 373 nm).   […]
software.19 For curve fitting, the binding model was set to 1:1. The spectra of all emitting species were recorded from 380 nm to 600 nm (λex = 373 nm) in separate experiments and set as “unknown spectrum”. The KD value was determined considering all the wavelengths recorded. […]

In the case of `NCCCCOc1cccc(CNC(=O)c2ccc(S(N)(=O)=O)cc2)c1` [ligand 22], the Kd in experiment [1] was 10 nM; in experiment [2], 5 nM.
Consider `COc1ccc2cc(C(=O)Nc3nnc(S(N)(=O)=O)s3)c(=O)oc2c1` [probe 23], for which the Kd in experiment [3] was found to be 1.69 nM.

In general, Kd refers to the equilibrium constant for the complex coming apart.
